Reference: patent US8614178B2, “Pharmaceutical composition for treatment of dry eye syndrome” (Novaliq GmbH, priority 2009, dated 2013)
Like-named read-outs stand apart in the source and are kept apart here.

Tests used:
rabbit eyes [1] = assay: Ex-vivo eye irritation test (EVEIT), abraded cornea
Protocol: (§1) The eyes were fastened in chambers coupled micropump systems which continuously supplied the eyes with cultivation medium (Minimal Essential Medium, MEM T031-05) without fetal calf serum. The vitality of the eyes was monitored by regularly measuring the concentration of lactate and glucose in the chamber eluate. The corneal surface of the eyes was damaged by abrasion, using a dental ceramic abrasive (638XF, Meisinger). For each eye, four lesions of 3.0 to 4.5 mm^2 were prepared.
(§2) To evaluate the effect of F4H5 and F4H5 with 1 wt.-% ethanol on the cornea, an amount of approx. 0.25 to 0.50 μl of the respective test substance was dropped onto the centre of a cornea once every hour over a period of 12 hours, followed by a 12 hour resting period in which the cornea was submersed in culture medium to simulate a closed lid during a night phase. In addition, an aqueous solution of hyaluronic acid (0.1 wt.-%) was used as reference (hyaluronic acid is know to enhance the restoration of the corneal surface after damage), culture medium was used as control, and aqueous benzalkonium chloride solution (0.01 wt.-%) was used as negative control. Each test was performed over a period of 3 days. The effects were observed by optical coherence tomography (OCT), by digitally determining the dimensions of the lesions after staining with fluorescein, and finally by a histological evaluation of the corneal epithelium and endothelium at the end of each experiment.
(§3) Each of the two vehicles was tested in two separate runs.

[2] = Refractive index determination; settings: neat SFA
[3] = Droplet size (weight and volume) from three droppers; type: physicochemical; settings: 25° C.; for Droplet volume: calculated; for Droplet weight: mean ± SD
Protocol: The droplet size of selected SFA's in terms of weight and volume of droplets from three droppers was determined and compared to that of purified water. The devices used for dispensing the droplets were (a) a 2 mL Pasteur pipette (wall thickness 0.53 mm; external tip diameter: 1.50 mm; length: 150 mm) made of glass, (b) a 20 G (0.9 mm×50 mm) injection needle, and (c) a dropper from a commercial eye drops product (Hylo-Vision). The droplet weights were measured at 25° C. using a laboratory balance; the volumes were calculated. Each test was performed 10 times.

[4] = system: Sjögren syndrome patients; settings: oral, clinical studies; cited from earlier work
rabbit eyes [5] = system: rabbit eyes
Protocol: as §1, §2, §3

## CCCCCC(F)(F)C(F)(F)C(F)(F)C(F)(F)F [Example F4H5]
Rabbit eyes [1]; OCT imaging
  Penetration into the cornea: no indication of penetration of F4H5 into the cornea
Rabbit eyes [1]; end of test
  Morphological and histological evaluation of cornea: had not only healed very well, but were also entirely clear at the end of the tests, with healthy and smooth surface morphology
Rabbit eyes [1]; in words
  Physiological tolerability: better tolerated than culture medium
[2]
  Refractive index: 1.3204
[3]; Eye dropper (Hylo-Vision)
  Droplet volume: 9.6 ± 0.2 µL
  Droplet weight: 12.4 ± 0.2 mg
[3]; Glass pipette
  Droplet volume: 4.7 ± 0.3 µL
[3]; Glass pipette, 10 tests
  Droplet weight: 6.0 ± 0.4 mg
[3]; Injection needle 20 G
  Droplet volume: 2.0 ± 0.3 µL
  Droplet weight: 2.6 ± 0.4 mg

## CC1OC2(CS1)CN1CCC2CC1 (stereo not shown) [Cevimeline]
[4]
  Effect on DED symptoms: effective in the management of symptoms associated with keratoconjunctivitis sicca of the Sjögren type

## CC[C@@H]1C(=O)OC[C@@H]1Cc1cncn1C [pilocarpine]
[4]
  Effect on DED symptoms: significantly improved DED symptoms

## O [Water, water, reference compound]
[3]; Eye dropper (Hylo-Vision)
  Droplet volume: 36.1 ± 2.2 µL
  Droplet weight: 36.0 ± 2.2 mg
[3]; Glass pipette
  Droplet volume: 31.3 ± 1.4 µL
[3]; Glass pipette, 10 tests
  Droplet weight: 31.2 ± 1.4 mg
[3]; Injection needle 20 G
  Droplet volume: 11.1 ± 0.9 µL
  Droplet weight: 11.0 ± 0.9 mg

## benzalkonium chloride [BAC]
Rabbit eyes [5]
  Healing of corneal lesions: rapid growth of the lesions eventually leading to a complete disintegration of the corneal epithelium
  Morphological and histological evaluation of cornea: complete disintegration of the corneal epithelium, but also a major impairment of the complete cornea even including the endothelium

## CCCCC(F)(F)C(F)(F)C(F)(F)C(F)(F)C(F)(F)C(F)(F)F [Example F6H4]
[2]
  Refractive index: 1.306

## CCC(F)(F)C(F)(F)C(F)(F)C(F)(F)C(F)(F)C(F)(F)F [Example F6H2]
[2]
  Refractive index: 1.295

## CCCCCCCCC(F)(F)C(F)(F)C(F)(F)C(F)(F)F [Example F4H8]
[2]
  Refractive index: 1.348

## CCCCCCCCC(F)(F)C(F)(F)C(F)(F)C(F)(F)C(F)(F)C(F)(F)F [Example F6H8]
[2]
  Refractive index: 1.3432
Rabbit eyes [5]
  Healing of corneal lesions: all lesions healed fully during the experimental time
[3]; Eye dropper (Hylo-Vision)
  Droplet volume: 10.3 ± 0.3 µL
  Droplet weight: 13.7 ± 0.4 mg
[3]; Glass pipette
  Droplet volume: 5.0 ± 0.4 µL
[3]; Glass pipette, 10 tests
  Droplet weight: 6.6 ± 0.6 mg
[3]; Injection needle 20 G
  Droplet volume: 2.5 ± 0.1 µL
  Droplet weight: 3.4 ± 0.2 mg

## CCCCC(F)(F)C(F)(F)C(F)(F)C(F)(F)F [Example F4H4]
[2]
  Refractive index: 1.308

## CCCCCCC(F)(F)C(F)(F)C(F)(F)C(F)(F)C(F)(F)C(F)(F)F [Example F6H6]
[2]
  Refractive index: 1.3224

## CCCCCCCC(F)(F)C(F)(F)C(F)(F)C(F)(F)F [Example F4H7]
[2]
  Refractive index: 1.3357

## CCCCCCCC(F)(F)C(F)(F)C(F)(F)C(F)(F)C(F)(F)C(F)(F)F [Example F6H7]
[2]
  Refractive index: 1.3366

## CCCCCCCCCC(F)(F)C(F)(F)C(F)(F)C(F)(F)C(F)(F)C(F)(F)F [Example F6H9]
[2]
  Refractive index: 1.3494

## CCCCCCC(F)(F)C(F)(F)C(F)(F)C(F)(F)F [Example F4H6]
[2]
  Refractive index: 1.334
